Values of other authors, collected in patent US20130071435A1, “NOVEL HERBAL FORMULATION FOR THE MODULATION OF IMMUNE SYSTEM OF HIV INFECTED PATIENTS AND A PROCESS OF PREPARATION THEREOF” (Sunil Kumar Swamy Rajan and Arun Kumar Swamy Rajan, priority 2011, published 2013).

Details: experimental, in-vitro and in-vivo studies

Row | Substance | immuno-potentiating activity
1 | sitoindoside 1× | significant immuno-potentiating activity
2 | sitoindoside × | significant immuno-potentiating activity
